The source of these data is patent US4177269A, “Novel 17-esters of 17α-hydroxy gestogens, compositions containing such compounds, processes for their preparation and methods of treatment therewith” (Aktiebolaget Leo, priority 1976, dated 1979).

Data set [1] relates to Ehrlich ascites tumour, ELD hyperdiploid. The experiment in a line: Ehrlich ascites tumour, ELD hyperdiploid (46 chromosomes), growth inhibition in mice. The data set is classed as in vivo, SPF NMRI mice. The following applies: 100 mg/kg, one i.p. injection. The method, boiled down:
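SPF NMRI mice implanted i.p. with 2 × 10^6 ELD hyperdiploid Ehrlich ascites cells, given one i.p. injection the day after implantation. Animals killed on day 8; tumour weights compared with controls.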

Data set [2] concerns the target T1, rabbit uterus cytosol progesterone receptor (Oryctolagus cuniculus, UniProt P06186).
T1 construct: One ml portions of the supernatant (rabbit uterus cytosol) were pipetted into small centrifuge tubes of glass; from tissue; host or cells: uterus cytosol (105,000×g supernatant) of female rabbits pretreated with polyestradiol phosphate
T1 sequence (P06186 1-930): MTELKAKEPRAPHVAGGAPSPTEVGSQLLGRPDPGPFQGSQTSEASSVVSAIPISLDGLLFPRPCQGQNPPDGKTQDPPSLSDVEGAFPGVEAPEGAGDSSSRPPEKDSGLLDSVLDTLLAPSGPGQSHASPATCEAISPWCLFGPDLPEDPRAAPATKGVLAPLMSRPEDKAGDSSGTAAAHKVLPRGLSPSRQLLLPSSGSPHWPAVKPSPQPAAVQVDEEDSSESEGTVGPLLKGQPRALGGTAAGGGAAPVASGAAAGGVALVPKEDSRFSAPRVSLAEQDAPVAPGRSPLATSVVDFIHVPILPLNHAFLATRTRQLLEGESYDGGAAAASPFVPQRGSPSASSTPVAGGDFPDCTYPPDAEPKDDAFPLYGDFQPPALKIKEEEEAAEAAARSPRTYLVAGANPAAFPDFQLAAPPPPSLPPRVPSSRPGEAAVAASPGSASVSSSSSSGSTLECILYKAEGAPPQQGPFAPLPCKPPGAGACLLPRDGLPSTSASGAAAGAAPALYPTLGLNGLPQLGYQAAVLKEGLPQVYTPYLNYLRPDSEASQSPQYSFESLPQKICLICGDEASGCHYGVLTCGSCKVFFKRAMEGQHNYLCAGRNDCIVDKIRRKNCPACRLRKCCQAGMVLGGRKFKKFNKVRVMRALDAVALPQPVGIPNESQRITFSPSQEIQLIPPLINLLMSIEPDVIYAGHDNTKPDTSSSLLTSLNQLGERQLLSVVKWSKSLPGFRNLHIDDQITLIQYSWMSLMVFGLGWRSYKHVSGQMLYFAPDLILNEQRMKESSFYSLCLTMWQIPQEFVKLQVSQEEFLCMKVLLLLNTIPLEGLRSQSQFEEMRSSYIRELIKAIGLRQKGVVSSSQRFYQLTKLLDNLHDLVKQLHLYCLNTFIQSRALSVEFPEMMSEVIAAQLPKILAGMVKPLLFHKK
The experiment in a line: Relative affinity to rabbit uterus cytosol progesterone receptor (3H-progesterone competition). The data set is classed as binding. To be noted: compared to progesterone; 50% competition with 3H-progesterone; 16-18 hours at 4° C. Here is the method:
This example illustrates the compound's relative affinity to rabbit uterus cytosol progesterone receptor compared with progesterone. The method used for this purpose is a modification of methods already described by Kontula, K. et al. (Acta Endocrinol. 78 (1975) 574) and Terenius, L. (Steroids 23 (1974) 909) among others.
Female rabbits (3-4 pounds) from Knut Larsen, Uddevalla, Sweden, were injected i.m. with 1 mg Estradurin (polyestradiol phosphate, 1 mg/ml saline, AB Leo, Sweden). After one week, the animals were killed and the uteri were immediately removed, chilled and cut free from connective tissues. All the following operations were performed at 0°-4° C. The uteri were cut into small pieces and washed several times with 3 vol. of buffer at pH 7.4 containing 50 MM TRIS-HCl, 1.5 mM EDTA, 3 mM NaN3, 2 mM dithiothreitol, and 25% glycerol (by vol.). The tissue was homogenized in the same buffer (3 vol.) with four 15-s bursts at rheostat setting 36-37 of an Ultra Turrax (Janke and Kunkel KG, Staufen, The Federal Republic of Germany). The homogenate was centifuged in a Sorvall GLC-2 centrifuge for 15 min at 600×g. The supernatanate was recentrifuged at 105,000×g for 60 min in a Beckman ultracentrifuge model LB-65-B with rotor SW 56.
One ml portions of the supernatant (rabbit uterus cytosol) were pipetted into small centrifuge tubes of glass and were kept at -70° C. until used. The protein content was determined by the method of Lowry (J. Biol. Chem. 193 (1951) 265).
10.0 mg of each compound was dissolved in 10.0 ml 99.5% ethanol. 100 μl of this standard solution was diluted to 5.0 ml ethanol/glycerol 1:1 (v/v). The ethanol was evaporated by blowing air at 40° C. on the solution. The volume was then adjusted to 5.0 ml by adding buffer without glycerol.
The compounds were diluted with glycerol/buffer 1:1 to final concentrations between 10^-8 -10^-5 M in total 300 μl incubation media. 100 μl of each compound and of each dilution were incubated in small centrifuge tubes (2 ml) together with 100 μl (10 pg) ^3 H-progesterone (1,2,6,7-3H-progesterone, 47.8 Ci/mMol, The Radiochemical Centre, Amersham, England) and 100 μl cytosol adjusted with buffer to a final concentration of about […]. The incubations were carried out for 16-18 hours at 4° C.
The separation of bound from free radioactivity was carried out at 0° C. using the dextran coated charcoal technique (DCC). To each incubation tube was added 0.5 ml DCC-suspension (0.05% dextran-70, Pharmacia, Uppsala, Sweden and 0.5% Norit A, Sigma, Saint Louis, Missouri, U.S.A.) The tubes were agitated 2-3 times during 10 minutes whereupon they were centrifuged at 100×g for five minutes. The supernatantes were decanted directly into Scintillation vials (polyethene, Packard) containing 10 ml InstaGel (Packard). The radioactivity was counted in a Philip's liquid scintillation spectrometer Model PW 4510/00 with external standard and automatic quenching correction.
To incubation tubes were added 100 μl cytosol, 100 μl ^3 H-progesterone (10 pg) and 100 μl of different dilutions of non-radioactive progesterone in glycerol/buffer 1:1 ranging from 0-10^4 pg/100 μl. The tubes were incubated parallel with the compounds described above. The radioactivity was calculated by substracting the counted radioactivity in the incubation tubes with the radioactivity counted in incubations tubes in which the cytosol was replaced with buffer (100 μl).
The concentration of non-radioactive progesterone [P]i which competes for 50% of bound radioactive progesterone was calculated from the standard curve constructed [B] i/[B] o=0.5 where [B]i is the bound radioactivity at different concentrations of non-radioactive progesterone and [B]o is the bound radioactivity at progesterone concentration zero.
In the same manner, curves were constructed for each compound X and the concentration for each compound which competes for 50% with bound ^3 H-progesterone ([X]50) was calculated. […]

Consider `CC(=O)[C@@]1(OC(=O)COC(=O)c2ccc(C)c(N(CCCl)CCCl)c2)CC[C@H]2[C@@H]3CCC4=CC(=O)CC[C@]4(C)[C@H]3CC[C@@]21C` [Compound 3:7, 17α-/3-(N,N-bis(2-chloroethyl)amino)-4-methylbenzoyloxyacetoxy/pregn-4-ene-3,20-dione], for which the Mortality in data set [1] is on record as 0/12. In addition, the “Tumour weight Treated/Control” value in data set [1] (8th day) stood at 2%. The “relative binding affinity (RBA)” value in data set [2] is recorded as 1.8%.
